Measured values reported in US9445596B2, “Small molecule compounds for the control of nematodes” (California Institute of Technology, priority 2011, dated 2016).
“Also recorded” adds a separate entry of the source.

Assays:
[1] = test system: ASI sensory neurons; settings: McGrath et al., Nature 2011; cited from earlier work
[2] = test system: C. elegans hermaphrodites and males; assay: Spot attraction assay; type: in vivo
Procedure: The spot attraction assays were conducted according to a previously reported method (Pungaliya et al., PNAS 106:7708-13 (2009); Srinivasan et al., Nature 454:1115-18 (2008), which are hereby incorporated by reference in their entirety). For both C. elegans hermaphrodites and males, 50-60 worms were harvested daily at the fourth larval stage (L4) and stored segregatedly by sex at 20° C. overnight, to be used as young adults the following day. For the competition experiments, two conditions were used: 120 nM ascr#3 and 10 nM icas#3 (Condition 1), or 12 μM ascr#3 and 1 μM icas#3 (Condition 2) in water containing 10% ethanol. Aliquots were stored at −20° C. in 20 μL tubes. 10% ethanol in water was used as control.
Attraction assays with hbas#3 were conducted as previously reported (Srinivasan et al., Nature 454:1115-18 (2008); Pungaliya et al., Proc. Natl. Acad. Sci. U.S.A. 106:7708-13 (2009), which are hereby incorporated by reference in their entirety). For the attraction assays, 50-60 hermaphrodite worms were harvested daily at the early fourth larval stage (L4) and stored at 20° C. overnight to be used as young adults the following day. Hbas#3 was dissolved in water containing 10% ethanol. Aliquots were stored at −20° C. in 20 μL tubes. 10% ethanol in water was used as control.

[3] = test system: C. elegans hermaphrodites; assay: Quadrant chemotaxis assay; type: in vivo; settings: for chemotaxis of hermaphrodites: 1 pM, all tested strains
Procedure: Chemotaxis to both non-indole and indole ascarosides was assessed on 10 cm four-quadrant petri plates (Wicks et al., Dev. Biol. 221:295-307 (2000), which is hereby incorporated by reference in its entirety). Each quadrant was separated from adjacent ones by plastic spacers (FIG. 1B). Pairs of opposite quadrants were filled with nematode growth medium (NGM) agar containing either indole ascarosides or non-indole ascarosides at different concentrations. Animals were washed gently in a S-basal buffer, placed in the center of a four-quadrant plate with ascarosides in alternating quadrants, and scored after 15 minutes and 30 minutes. A chemotaxis index was calculated as: (the number of animals on ascaroside quadrants minus the number of animals on buffer quadrants)/(total number of animals).
Chemotaxis to hbas#3 was assessed on 10 cm four-quadrant petri plates (Wicks et al., Dev. Biol. 221:295-307 (2000), which is hereby incorporated by reference in its entirety). Each quadrant was separated from adjacent ones by plastic spacers. Pairs of opposite quadrants were filled with nematode growth medium (NGM) agar containing different concentrations of hbas#3. Animals were washed gently in an S-basal buffer and placed in the center of a four-quadrant plate with ascarosides in alternating quadrants, and scored after 15 minutes and 30 minutes. A chemotaxis index was calculated as: (the number of animals on ascaroside quadrants minus the number of animals on buffer quadrants)/(total number of animals).

[4] = test system: C. elegans; assay: Aggregation assay; type: in vivo
Procedure: Aggregation behavior of worms was measured using assays reported in de Bono & Bargmann, Cell 94:679-89 (1998), which is hereby incorporated by reference in its entirety. Aggregation assays were conducted on standard NGM plates. Plates containing indole ascarosides were made by adding the indole ascaroside stock solution to the NGM media before they were poured onto the plates. These plates were dried at room temperature for 2 to 3 days. Control plates were treated similarly, except that ethanol solutions instead of icas solutions were added to the plates, corresponding to the amount of ethanol introduced via the icas solutions. Final ethanol concentrations of the plates were below 0.1% for all conditions. After drying, both control plates and plates containing indole ascarosides were seeded with 150 μl of an overnight culture of E. coli OP50 using a micropipette, and were allowed to dry for 2 days at room temperature. For “low worm density” experiments, 20 worms were placed onto the lawn and left at 20° C. for 3 hours. For “high worm density” experiments, approximately 120 worms were placed onto the bacterial lawn and left at 20° C. for 3 hours. Aggregation behavior was quantified as the number of animals that were in touch with two or more animals at greater than 50% of their body length.

[5] = test system: C. elegans hermaphrodites; assay: Measurement of locomotory parameters (automated worm tracking); type: in vivo
Procedure: Reversal frequency and velocity were measured using an automated worm-tracking system (Pungaliya et al., PNAS 106:7708-13 (2009); Srinivasan et al., Nature 454:1115-18 (2008), which are hereby incorporated by reference in their entirety).

[6] = test system: ASK neurons; assay: Calcium imaging (G-CaMP), ASK neurons; type: in vivo, C. elegans; settings: 1 pM to 1 μM
Text: (§1) Transgenic lines that express the genetically encoded Ca^2+ sensor in ASK (kyEx2866) and AIA (kyEx2916) (Macosko et al., Nature 458:1171-75 (2009), which is hereby incorporated by reference in its entirety) were used for calcium imaging. Young adults or adult worms were inserted into an “Olfactory chip” microfluidic device (Chronis et al., Nat. Methods 4:727-31 (2007), which is hereby incorporated by reference in its entirety). Dilutions of icas#3 were done with S-basal buffer (with no cholesterol). As stock solutions of icas#3 contained small amounts of ethanol, equivalent amounts of ethanol were added to the S-basal control flow.
(§2) Imaging was conducted using an inverted Zeiss microscope equipped with an Andor camera. Exposure time for image acquisition was 300 milliseconds. Before imaging the ASK neuron, the worm was exposed to blue light for 3 minutes as ASK responds to the blue light itself. […] Movies were analyzed using custom-made Matlab scripts. The first peak of fluorescence immediately after exposure to buffer or icas#3 was chosen for calculating the average change in fluorescence upon exposure to either buffer or icas#3. The value for this maximum was then subtracted from the mean fluorescence during the 5 seconds before the delivery of icas#3/buffer (corresponding to the region between 5 to 10 seconds in FIG. 2D).

[7] = test system: AIA interneurons; assay: Calcium imaging (G-CaMP), AIA interneurons; type: in vivo, C. elegans
Text: as §1, §2

[8] = social wild-type strains (RC301 and CB4856) and npr-1(ad609) hermaphrodites
[9] = ASK-ablated hermaphrodites on icas#3 plates

In the case of C[C@@H]1O[C@@H](OCCC(=O)O)[C@H](O)C[C@H]1O [ascr#5], the “calcium transients in the ASI sensory neurons” value [1] is listed as “does not elicit calcium transients”.
In the case of C[C@H](CCCC/C=C/C(=O)O)O[C@@H]1O[C@@H](C)[C@H](OC(=O)c2c[nH]c3ccccc23)C[C@H]1O [icas#3], the “attraction in the spot attraction assay” value ([2]; 1 pmol, N2 hermaphrodites and him-5 males) is reported as “attractive to both C. elegans sexes”, the “attraction after ablation of both ASI and ASK neurons” value ([2]; ASI- and ASK-ablated hermaphrodites) is reported as “did not result in a more significant loss of attraction compared to ASK ablation alone” and the “attraction after ablation of the ASI neurons” value ([2]; ASI-ablated hermaphrodites) is reported as “no significant effect”. The “attraction of AIA-deficient worms” value ([2]; MEC-4 expressed in AIA interneuron) was “did not show any attraction”, the “attraction of daf-22 hermaphrodites” value ([2]; daf-22 hermaphrodites) was “attracted; also recorded: as strongly as N2 worms” and the “attraction after ablation of ASK sensory neurons” value ([2]; hermaphrodites lacking ASK neurons) was “near complete loss of attraction”. The “attraction in the spot attraction assay” value ([2]; high concentrations, males and hermaphrodites) was “attracted both males and hermaphrodites”, the attraction of hermaphrodites ([2]; low concentrations, N2 hermaphrodites) was “strongly attractive to hermaphrodites” and the attraction of males ([2]; low concentrations, males) was “no longer attracted”. For the same molecule, the “attraction of social hermaphrodites” value [2, 8] was “attracted; also recorded: strongly attracted”, the “attraction after ablation of the RMG interneuron” value ([2]; wild-type (N2) and ncs-1::gfp hermaphrodites, RMG ablated) was “does not affect attraction; also recorded: did not affect icas#3 response” and the chemotaxis of hermaphrodites ([3]; after 15 minutes) was “attracted”. The chemotaxis of hermaphrodites ([3]; after 30 minutes) was “attracted”, the “lowest concentration resulting in strong attraction of hermaphrodites (as low as)” value ([3]; both in the presence and absence of food) was 1 pM and the “response of daf-22 hermaphrodites” value ([3]; daf-22 hermaphrodites) was “as strongly as N2 worms”. For the same molecule, the “attraction of social hermaphrodites” value [3, 8] was “strongly attracted”, the “increase in aggregation of N2 hermaphrodites” value ([4]; high worm density (120 worms per 5 cm plate)) was ≤ 3 fold and the average clump size ([4]; icas#3-mediated aggregation) was 3-5 worms. For the same molecule, the “concentrations at which active as hermaphrodite attractants and aggregation signals” value ([4]; in vivo) was “femtomolar to picomolar”, the “concentrations that induce maximal aggregation” value ([4]; in vivo) was 1 to 10 pM and the “lowest concentration with very strong increase in aggregation (as low as)” value ([4]; low worm density (20 worms per 5 cm plate), solitary and social hermaphrodites) was 10 fM. For the same molecule, the “increase in aggregation of N2 hermaphrodites” value ([4]; low worm density, 1 pM) was ≤ 4 fold, the “aggregation of daf-22 hermaphrodites compared with N2” value ([4]; low worm density, 1 pM and 10 pM) was “less aggregation than N2 worms at 1 pM icas#3 but not at 10 pM icas#3” and the “aggregation of hermaphrodites lacking the ASK neurons” value ([4]; low worm density, any of the tested concentrations) was “do not aggregate; also recorded: did not aggregate”. The “aggregation of npr-1(ad609) hermaphrodites” value ([4]; low worm density, over the entire tested concentration range, without a drop off at higher concentrations) was “increased aggregation”, the “aggregation at 1 nM” value ([4]; low worm density, social strain CB4856, 1 nM) was “not significantly different from the control” and the “concentration of maximal aggregation” value ([4]; low worm density, social strain CB4856, bell-shaped response curve) was 1 pM. For the same molecule, the “aggregation of him-5 males” value ([4]; plates containing 100 fM or 100 pM) was “significantly increased”, the worm velocity ([5]; 1-10 pM) was “not significantly reduced” and the “forward velocity of ASK-ablated hermaphrodites” value [5, 9] was “do not display reduced forward velocity”. For the same molecule, the “reversal frequency of ASK-ablated hermaphrodites” value [5, 9] was “does not increase; also recorded: neither increased reversal frequency”, the mean stopped duration ([5]; aggregation-inducing concentrations, N2 hermaphrodites) was “strongly increase mean stopped duration” and the “Ca^2+ transients in ASK neurons” value [6] was “no detection of Ca^2+ transients”. The “G-CaMP fluorescence signals in AIA interneurons” value ([7]; 1 μM) was “induces G-CaMP fluorescence signals” and the “G-CaMP fluorescence in the AIA neurons” value ([7]; in vivo) was “significantly increased G-CaMP fluorescence”.
